Reference: ChEMBL document CHEMBL5214948, “Boronic Acid: A Novel Pharmacophore Targeting Src Homology 2 (SH2) Domain of STAT3” (J Med Chem, 2022)
Activity calls are given as the source filed them. No cut-off for these calls is given here.

Assays:
[1] = target: T1, Signal transducer and activator of transcription 3 (Homo sapiens, UniProt P40763); assay: Binding affinity to full length wild type STAT3-SH2 domain (unknown origin) assessed as association constant by SPR analysis
[2] = test system: MGC-803; assay: Antitumor activity against human MGC-803 cells xenografted in ip dosed BALB/c nude mouse assessed as supression of tumor growth measured every day for 20 days; type: functional, organism-based; conditions: dose 5-15 mg/kg, time 20.0 day, DDE = dose-dependent effect
[3] = test system: MGC-803; assay: Antitumor activity against human MGC-803 cells xenografted in BALB/c nude mouse assessed as tumor growth inhibition at 5 mg/kg, ip measured every day for 20 days; type: functional; set-up: scale not given: the % may be the effect or the level left; conditions: time 20 day
[4] = test system: MGC-803; assay: Antitumor activity against human MGC-803 cells xenografted in BALB/c nude mouse assessed as reduction in phosphorylated STAT3 at Y705 residue at 5 mg/kg, ip measured every day for 20 days by immunohistochemical analysis; type: functional, organism-based; conditions: time 20.0 day
[5] = Toxicity in nude BALB/c nude mouse xenografted with human MGC-803 cells assessed as morphological changes in spleen at 5 to 15 mg/kg, ip measured every day for 20 days by H and E staining based assay; type: organism-based; conditions: in vivo, 480 h, time 20 day
[6] = Toxicity in BALB/c nude mouse xenografted with MGC-803 cells assessed as effect on body weight at 5 mg/kg, ip measured every day for 20 days; type: organism-based; conditions: in vivo, 480 h, time 20 day
[7] = test system: AGS; assay: Inhibition of colony formation in human AGS cells at 0.5 uM incubated for 10 to 15 days by crystal violet staining based assay; type: functional, cell-based; conditions: time 10-15 day
[8] = test system: MGC-803; assay: Induction of apoptosis in human MGC-803 cells at 5 uM incubated for 72 hrs by V-FITC/PI staining based flow cytometry assay; type: functional
[9] = test system: AGS; assay: Induction of apoptosis in human AGS cells at 1 uM incubated for 72 hrs by V-FITC/PI staining based flow cytometry assay; type: functional
[10] = Toxicity in BALB/c nude mouse xenografted with MGC-803 cells assessed as effect on body weight at 15 mg/kg, ip measured every day for 20 days; type: organism-based; conditions: in vivo, 480 h, time 20 day
[11] = test system: MGC-803; assay: Antitumor activity against human MGC-803 cells xenografted in BALB/c nude mouse assessed as reduction in Ki67 expression at 15 mg/kg, ip measured every day for 20 days by immunohistochemical analysis; type: functional, organism-based; conditions: time 20.0 day
[12] = test system: MGC-803; assay: Antitumor activity against human MGC-803 cells xenografted in BALB/c nude mouse assessed as reduction in phosphorylated STAT3 at Y705 residue at 15 mg/kg, ip measured every day for 20 days by immunohistochemical analysis; type: functional, organism-based; conditions: time 20.0 day
[13] = target: T1, Signal transducer and activator of transcription 3; assay: Binding affinity to full length wild type STAT3-SH2 domain (unknown origin) assessed as equilibrium dissociation constant by SPR analysis
[14] = target: T1, Signal transducer and activator of transcription 3; assay: Inhibition of STAT3 phosphorylation at Tyr705 residue in human MGC-803 cells incubated for 24 hrs by Western blot analysis; type: cell-based; conditions: dose 3-5 µM, DDE = dose-dependent effect
[15] = test system: AGS; assay: Induction of apoptosis in human AGS cells at 3 uM incubated for 72 hrs by V-FITC/PI staining based flow cytometry assay; type: functional
[16] = test system: MGC-803; assay: Antitumor activity against human MGC-803 cells xenografted in BALB/c nude mouse assessed as reduction in tumor cells at 5 mg/kg, ip measured every day for 20 days by immunohistochemical analysis; type: functional, organism-based; conditions: time 20.0 day
[17] = test system: AGS; assay: Inhibition of cell migration in human AGS cells assessed as cell migration incubated for 24 hrs by microscopy based by scratch wound healing assay; type: functional; conditions: dose 1-3 µM, DDE = dose-dependent effect
[18] = target: T1, Signal transducer and activator of transcription 3; assay: Inhibition of STAT3 transcriptional activity in human AGS cells assessed as downregulation of C-myc protein expression at 1 to 3 uM incubated for 24 hrs by Western blot analysis; type: cell-based; conditions: dose 1-3 µM
[19] = test system: MGC-803; assay: Inhibition of cell invasion in human MGC-803 cells measured after 24 hrs by crystal violet staining based imaging transwell assay; type: functional; conditions: DDE = dose-dependent effect
[20] = Volume of distribution at steady state in ICR mouse at 5 mg/kg, iv measured upto 24 hrs by LC-MS/MS analysis; type: ADME, organism-based; conditions: in vivo, read-out: Vdss
[21] = Antiproliferative activity against […] H9c2 cells assessed as reduction in cell viability incubated for 72 hrs by CCK-8 assay; type: toxicity, cell-based; conditions: rat
[22] = Toxicity in nude BALB/c nude mouse xenografted with human MGC-803 cells assessed as morphological changes in heart at 5 to 15 mg/kg, ip measured every day for 20 days by H and E staining based assay; type: organism-based; conditions: in vivo, 480 h, time 20 day
[23] = Toxicity in nude BALB/c nude mouse xenografted with human MGC-803 cells assessed as morphological changes in lung at 5 to 15 mg/kg, ip measured every day for 20 days by H and E staining based assay; type: organism-based; conditions: in vivo, 480 h, time 20 day
[24] = target: T1, Signal transducer and activator of transcription 3; assay: Inhibition of STAT3 transcriptional activity in human MGC-803 cells assessed as downregulation of Bcl-xL protein expression at 3 to 5 uM incubated for 24 hrs by Western blot analysis; type: cell-based; conditions: dose 3-5 µM
[25] = test system: AGS; assay: Antiproliferative activity against human AGS cells assessed as reduction in cell viability incubated for 72 hrs by CCK-8 assay; type: functional, cell-based
[26] = test system: MGC-803; assay: Antitumor activity against human MGC-803 cells xenografted in BALB/c nude mouse assessed as reduction in c-myc expression at 5 mg/kg, ip measured every day for 20 days by immunohistochemical analysis; type: functional, organism-based; conditions: time 20.0 day
[27] = target: T1, Signal transducer and activator of transcription 3; assay: Inhibition of IL-6 induced FLAG/HA-tagged STAT3 dimerization in human HEK293T cells pretreated for 24 hrs followed by IL-6 stimulation and measured after 1 hr by immunoprecipitation assay; type: cell-based; conditions: time 25.0 hrs, DDE = dose-dependent effect

T1 sequence (P40763 whole entry, the tested form may be a part): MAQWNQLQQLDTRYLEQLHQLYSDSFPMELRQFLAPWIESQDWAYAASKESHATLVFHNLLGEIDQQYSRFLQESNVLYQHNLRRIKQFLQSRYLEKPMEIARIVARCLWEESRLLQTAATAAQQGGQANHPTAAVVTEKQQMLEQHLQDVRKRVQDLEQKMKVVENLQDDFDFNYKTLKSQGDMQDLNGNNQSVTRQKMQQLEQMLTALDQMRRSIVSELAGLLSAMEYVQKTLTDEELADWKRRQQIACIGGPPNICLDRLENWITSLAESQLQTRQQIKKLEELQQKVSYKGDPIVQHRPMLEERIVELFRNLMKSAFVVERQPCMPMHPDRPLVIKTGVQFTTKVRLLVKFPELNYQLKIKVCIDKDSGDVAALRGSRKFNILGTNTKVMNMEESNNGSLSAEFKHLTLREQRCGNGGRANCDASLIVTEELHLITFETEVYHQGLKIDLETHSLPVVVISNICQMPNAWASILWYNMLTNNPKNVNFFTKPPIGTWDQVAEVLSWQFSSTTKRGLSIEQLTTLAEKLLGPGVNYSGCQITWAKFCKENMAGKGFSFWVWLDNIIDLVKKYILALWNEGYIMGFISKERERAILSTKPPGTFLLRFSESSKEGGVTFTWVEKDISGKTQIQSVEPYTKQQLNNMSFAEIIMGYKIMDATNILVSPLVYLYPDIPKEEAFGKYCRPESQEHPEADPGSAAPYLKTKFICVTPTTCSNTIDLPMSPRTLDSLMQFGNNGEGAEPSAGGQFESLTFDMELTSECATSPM

SMILES: CN(CC(=O)N(Cc1ccc(C2CCCCC2)cc1)c1ccc(B(O)O)cc1)S(=O)(=O)c1c(F)c(F)c(F)c(F)c1F
- Ka [1]: 1.25 10^3/M/s
- Activity [2]: Dde
- Activity [3]: 65.14%
- Activity [4]: Active
- Activity [5]: Non-Toxic
- Activity [6]: Non-Toxic
- inhibition [7]: Active
- Activity [8]: 11.2%
- Activity [9]: 13%
- Activity [10]: Non-Toxic
- Activity [11]: Active
- Activity [12]: Active
- Kd [13]: 5.02 µM
- inhibition [14]: Dde
- Activity [15]: 26.7%
- Activity [16]: Active
- inhibition [17]: Dde
- inhibition [18]: Active
- inhibition [19]: Dde
- Vd [20]: 18.7 L/kg
- IC50 at 72 h [21]: 9.05 µM
- Activity [22]: Non-Toxic
- Activity [23]: Non-Toxic
- inhibition [24]: Active
- IC50 [25]: 1540 nM
- Activity [26]: Active
- inhibition [27]: Dde
